Laboratory results: patent publication US7592308B2, “F3W variants of the lantibiotic mersacidin and its use” (priority 2004, dated 2009)
Converted amounts (≈) assume the structure as drawn. Read-outs that look alike come from different tables or passages of the source. Square brackets hold non-standard residues; d marks the D form. Ends that are not written are not given here. Dha = C=C(N)C(=O)O

Experiments:
M. luteus 4698 = type: cell-based, Micrococcus luteus; details: 4698
Procedure: (§1) A selection of the variants produced in Example 1 above were tested further for activity against a range of bacteria. Minimum inhibitory concentrations (MICs) for all organisms with the exception of Streptococcus pneumoniae were determined by two-fold serial antibiotic dilutions in Mueller-Hinton broth (MHB) supplemented with 50 μg/ml calcium as calcium chloride dihydrate. Minimum inhibitory concentrations (MICs) for S. pneumoniae were determined by two-fold serial antibiotic dilutions in Brain Heart Infusion (BHI) broth supplemented with 50 μg/ml calcium as calcium chloride dihydrate. Antimicrobial agent stock solutions were prepared and stored according to NCCLS standard M7-A6.
(§2) Actively growing broth cultures were diluted to contain […] by adjusting to an absorbance of 0.2-0.3 at 600 nm, equivalent to the McFarland 0.5 standard. They were then diluted a further 1:100 in broth. The assays were performed in duplicate in sterile 96-well microtitre plates in a total volume of 200 μl (160 μl broth, 20 μl antibiotic, 20 μl inoculum) in a concentration range from 64 μg/ml to 0.06 μg/ml. The 12th well of the microtitre plate contained no antimicrobial agent. Vancomycin was used as a reference antibiotic for quality control. Plates were incubated aerobically, shaking, for 18-20 hours at 37° C. with the MIC defined as the lowest concentration of drug that produced no visible growth.

S. pyogenes 13608 = type: cell-based, Streptococcus pyogenes
Procedure: (§3) MIC tests were performed with some of the variants of Example 2 on a range of other organisms. The results are shown in Tables 9 and 10 (figures in μg/ml): […]

S. pyogenes 16205 = type: cell-based, Streptococcus pyogenes
Procedure: as §3

S. aureus 1012-13 MRSA = type: cell-based, Staphylococcus aureus
Procedure: as §3

S. aureus COL MRSA = type: cell-based, Staphylococcus aureus
Procedure: as §3

S. aureus CS = type: cell-based, Staphylococcus aureus
Procedure: as §3

S. aureus SG511 = type: cell-based, Staphylococcus aureus
Procedure: as §3

E. faecium 4147 VRE = type: cell-based, Enterococcus faecium
Procedure: as §3

E. faecium 4147-1 = type: cell-based, Enterococcus faecium
Procedure: as §3

E. faecium 19579 = experiment: MIC, two-fold serial dilution in broth; type: cell-based, Enterococcus faecium; details: duplicate
Procedure: as §1, §2

E. faecium 7131121 = experiment: MIC, two-fold serial dilution in broth; type: cell-based, Enterococcus faecium; details: duplicate
Procedure: as §1, §2

E. faecalis 29212 = experiment: MIC, two-fold serial dilution in broth; type: cell-based, Enterococcus faecalis; details: duplicate
Procedure: as §1, §2

S. aureus SH1000 = type: cell-based, Staphylococcus aureus
Procedure: as §1, §2

S. pneumoniae R6 = type: cell-based, Streptococcus pneumoniae; details: Table 8B; BHI broth + 50 μg/ml calcium; duplicate
Procedure: as §1, §2

S. aureus R33 = type: cell-based, Staphylococcus aureus; details: Table 8A; MHB + 50 μg/ml calcium; duplicate
Procedure: as §1, §2

M. luteus = details: data of Szekat et al.; cited from earlier work
[1] = Table 8A, MHB + 50 μg/ml calcium
[2] = Table 8A, MHB + 50 μg/ml calcium, duplicate

CC[C@H](C)[C@@H]1NC(=O)[C@@H]2CSC(C)C(NC(=O)[C@@H]3CSC(C)C(NC(=O)[C@H](Cc4ccccc4)NC(=O)C4NC(=O)[C@@H](N)CSC4C)C(=O)N[C@@H](CC(C)C)C(=O)N4CCC[C@H]4C(=O)NCC(=O)NCC(=O)NCC(=O)NCC(=O)N[C@@H](C(C)C)C(=O)N3)C(=O)N[C@@H](CC(C)C)C(=O)NC(C(=O)N[C@@H](Cc3c[nH]cn3)C(=O)N[C@@H](CCC(=O)O)C(=O)N2)C(C)SC=CNC1=O (stereo partly shown) [Dha16H]
MIC M. luteus 4698 (M. luteus 4698): 4 µg/mL (≈ 2.11 µM) | MIC S. pyogenes 13608 (S. pyogenes 13608): 4 µg/mL (≈ 2.11 µM) | MIC S. pyogenes 16205 (S. pyogenes 16205): 4 µg/mL (≈ 2.11 µM) | MIC S. aureus 1012-13 MRSA (S. aureus 1012-13 MRSA): 64 µg/mL (≈ 33.8 µM) | MIC S. aureus COL MRSA (S. aureus COL MRSA): 64 µg/mL (≈ 33.8 µM) | MIC S. aureus CS (S. aureus CS): 64 µg/mL (≈ 33.8 µM) | MIC S. aureus SG511 (S. aureus SG511): 8 µg/mL (≈ 4.22 µM) | MIC E. faecium 4147 VRE (E. faecium 4147 VRE; 4147 VRE): 128 µg/mL (≈ 67.6 µM) | MIC E. faecium 4147-1 (E. faecium 4147-1; Table 9, 16 h): 128-16 h, μg/ml | MIC E. faecium 4147-1 (E. faecium 4147-1; Table 9, 23 h): 256-23 h μg/ml

C=C1NC(=O)C2NC(=O)[C@H](CC(C)C)NC(=O)C(NC(=O)[C@@H]3CSC(C)C(NC(=O)[C@H](Cc4ccccc4)NC(=O)C4NC(=O)[C@@H](N)CSC4C)C(=O)N[C@@H](CC(C)C)C(=O)N4CCC[C@H]4C(=O)NCC(=O)N[C@@H](Cc4c[nH]cn4)C(=O)NCC(=O)NCC(=O)N[C@@H](C(C)C)C(=O)N3)C(C)SC[C@H](NC(=O)[C@H](CCC(=O)O)NC1=O)C(=O)N[C@@H]([C@@H](C)CC)C(=O)NC=CSC2C (stereo partly shown) [G8H]
MIC E. faecium 19579 (E. faecium 19579; Table 11): >64, >64 μg/ml | MIC E. faecium 7131121 (E. faecium 7131121; Table 11): >64, >64 μg/ml | MIC E. faecalis 29212 (E. faecalis 29212; Table 11): >64, >64 μg/ml | MIC S. aureus SH1000 (S. aureus SH1000; SH1000): 64, >64 μg/ml

C=C1NC(=O)C2NC(=O)[C@H](CC(C)C)NC(=O)C(NC(=O)[C@@H]3CSC(C)C(NC(=O)[C@H](Cc4ccccc4)NC(=O)C4NC(=O)[C@@H](N)CSC4C)C(=O)N[C@@H](CC(C)C)C(=O)N4CCC[C@H]4C(=O)NCC(=O)NCC(=O)N[C@@H](CC(N)=O)C(=O)NCC(=O)N[C@@H](C(C)C)C(=O)N3)C(C)SC[C@H](NC(=O)[C@H](CCC(=O)O)NC1=O)C(=O)N[C@@H]([C@@H](C)CC)C(=O)NC=CSC2C (stereo partly shown) [G9N]
MIC E. faecium 19579 (E. faecium 19579; [1]): >64, >64 μg/ml | MIC E. faecium 7131121 (E. faecium 7131121; [1]): >64, >64 μg/ml | MIC E. faecalis 29212 (E. faecalis 29212; [1]): >64, >64 μg/ml | MIC S. aureus SH1000 (S. aureus SH1000; [2]): >64, >64 μg/ml | MIC S. pneumoniae R6 (S. pneumoniae R6): >64, >64 μg/ml

C=C1NC(=O)C2NC(=O)[C@H](CC(C)C)NC(=O)C(NC(=O)[C@@H]3CSC(C)C(NC(=O)[C@H](Cc4ccccc4)NC(=O)C4NC(=O)[C@@H](N)CSC4C)C(=O)N[C@@H](CC(C)C)C(=O)N4CCC[C@H]4C(=O)NCC(=O)NCC(=O)NCC(=O)N[C@@H](C)C(=O)N[C@@H](C(C)C)C(=O)N3)C(C)SC[C@H](NC(=O)[C@H](CCC(=O)O)NC1=O)C(=O)N[C@@H]([C@@H](C)CC)C(=O)NC=CSC2C (stereo partly shown) [G10A]
MIC E. faecium 19579 (E. faecium 19579; [1]): >64, >64 μg/ml | MIC E. faecium 7131121 (E. faecium 7131121; [1]): >64, >64 μg/ml | MIC E. faecalis 29212 (E. faecalis 29212; [1]): >64, >64 μg/ml | MIC S. aureus R33 (S. aureus R33): >64, >64 μg/ml | MIC S. aureus SH1000 (S. aureus SH1000; [2]): >64, >64 μg/ml

C=C1NC(=O)C2NC(=O)[C@H](CC(C)C)NC(=O)C(NC(=O)[C@@H]3CSC(C)C(NC(=O)[C@H](Cc4ccccc4)NC(=O)C4NC(=O)[C@@H](N)CSC4C)C(=O)N[C@@H](CC(C)C)C(=O)N[C@@H](C)C(=O)NCC(=O)NCC(=O)NCC(=O)NCC(=O)N[C@@H](C(C)C)C(=O)N3)C(C)SC[C@H](NC(=O)[C@H](CCC(=O)O)NC1=O)C(=O)N[C@@H]([C@@H](C)CC)C(=O)NC=CSC2C (stereo partly shown) [P6A]
MIC M. luteus 4698 (M. luteus 4698): 4 µg/mL (≈ 2.22 µM) | MIC S. pyogenes 13608 (S. pyogenes 13608): 4 µg/mL (≈ 2.22 µM) | MIC S. pyogenes 16205 (S. pyogenes 16205): 8 µg/mL (≈ 4.44 µM) | MIC S. aureus 1012-13 MRSA (S. aureus 1012-13 MRSA): 32 µg/mL (≈ 17.8 µM) | MIC S. aureus COL MRSA (S. aureus COL MRSA): 64 µg/mL (≈ 35.6 µM) | MIC S. aureus CS (S. aureus CS): 32 µg/mL (≈ 17.8 µM) | MIC S. aureus SG511 (S. aureus SG511): 8 µg/mL (≈ 4.44 µM) | MIC E. faecium 4147 VRE (E. faecium 4147 VRE; Table 9, 16 h): 128-16 h, μg/ml | MIC E. faecium 4147 VRE (E. faecium 4147 VRE; Table 9, 24 h): 256-24 h μg/ml | MIC E. faecium 4147-1 (E. faecium 4147-1; 4147-1): 256 µg/mL (≈ 142 µM)

F3L: mersacidin variant produced by Szekat et al. (CTLTLPGGGGVCTLT[Dha]ECIC; thioether (positions not given here); not fully specified; UniProt P43683 49-68, looked up, variant F3L)
MIC against M. luteus (M. luteus): 12.5 µg/mL | antibacterial activity (in words) (M. luteus): weakly active

G7A: mersacidin variant (CTFTLPAGGGVCTLT[Dha]ECIC; thioether (positions not given here); not fully specified; UniProt P43683 49-68, looked up, variant G7A)
MIC E. faecium 7131121 (E. faecium 7131121; [1]): >64, >64 μg/ml | MIC E. faecalis 29212 (E. faecalis 29212; [1]): >64, >64 μg/ml | MIC S. aureus SH1000 (S. aureus SH1000; [2]): >64, >64 μg/ml | MIC S. pneumoniae R6 (S. pneumoniae R6): >64, >64 μg/ml
